# Assay results as given in US11767322B2 (BRISTOL-MYERS SQUIBB COMPANY, priority 2020, dated 2023).
# Where two headings read alike, the source gives them in different places.
# Key:
# [1] = tested on: MLKL phosphorylation in HT29-L23 human colorectal adenocarcinoma cells; test: MLKL phosphorylation high-content assay; format: cell-based
# [2] = molecular target: GST-tagged PIK3Cδ in complex with PIK3R1 (Homo sapiens, UniProt O00329); test: PI3Kδ HTRF binding assay; details: read-out: PIK3CD IC50
# Sequence of GST-tagged PIK3Cδ in complex with PIK3R1 (O00329 whole entry): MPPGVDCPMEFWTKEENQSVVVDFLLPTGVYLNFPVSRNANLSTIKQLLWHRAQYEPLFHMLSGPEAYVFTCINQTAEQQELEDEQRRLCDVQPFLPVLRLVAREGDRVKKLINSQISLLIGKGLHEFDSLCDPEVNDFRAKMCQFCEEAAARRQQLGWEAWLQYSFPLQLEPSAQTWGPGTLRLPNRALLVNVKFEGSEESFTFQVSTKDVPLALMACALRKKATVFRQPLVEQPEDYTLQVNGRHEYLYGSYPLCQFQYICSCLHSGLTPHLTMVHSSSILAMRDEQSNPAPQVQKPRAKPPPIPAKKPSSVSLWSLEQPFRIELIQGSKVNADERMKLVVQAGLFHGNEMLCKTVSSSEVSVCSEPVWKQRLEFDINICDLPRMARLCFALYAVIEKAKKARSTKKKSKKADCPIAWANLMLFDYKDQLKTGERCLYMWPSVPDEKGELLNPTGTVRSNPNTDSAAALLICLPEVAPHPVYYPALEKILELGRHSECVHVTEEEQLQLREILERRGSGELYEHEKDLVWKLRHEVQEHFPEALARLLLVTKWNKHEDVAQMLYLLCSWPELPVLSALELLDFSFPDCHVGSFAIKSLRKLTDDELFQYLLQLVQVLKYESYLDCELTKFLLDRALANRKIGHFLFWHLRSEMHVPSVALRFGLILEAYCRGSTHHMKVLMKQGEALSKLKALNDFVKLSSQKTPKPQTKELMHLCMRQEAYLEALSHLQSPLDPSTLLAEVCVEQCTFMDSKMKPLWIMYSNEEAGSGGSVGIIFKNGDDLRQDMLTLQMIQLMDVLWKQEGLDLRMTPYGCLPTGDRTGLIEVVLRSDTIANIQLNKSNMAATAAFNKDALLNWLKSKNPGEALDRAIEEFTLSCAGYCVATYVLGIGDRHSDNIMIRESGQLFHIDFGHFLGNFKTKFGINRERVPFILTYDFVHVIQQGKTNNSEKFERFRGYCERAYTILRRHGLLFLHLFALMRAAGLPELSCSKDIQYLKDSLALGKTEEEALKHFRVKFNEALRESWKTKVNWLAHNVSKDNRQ
# Sequence of GST-tagged PIK3Cδ in complex with PIK3R1 (P27986 whole entry partner): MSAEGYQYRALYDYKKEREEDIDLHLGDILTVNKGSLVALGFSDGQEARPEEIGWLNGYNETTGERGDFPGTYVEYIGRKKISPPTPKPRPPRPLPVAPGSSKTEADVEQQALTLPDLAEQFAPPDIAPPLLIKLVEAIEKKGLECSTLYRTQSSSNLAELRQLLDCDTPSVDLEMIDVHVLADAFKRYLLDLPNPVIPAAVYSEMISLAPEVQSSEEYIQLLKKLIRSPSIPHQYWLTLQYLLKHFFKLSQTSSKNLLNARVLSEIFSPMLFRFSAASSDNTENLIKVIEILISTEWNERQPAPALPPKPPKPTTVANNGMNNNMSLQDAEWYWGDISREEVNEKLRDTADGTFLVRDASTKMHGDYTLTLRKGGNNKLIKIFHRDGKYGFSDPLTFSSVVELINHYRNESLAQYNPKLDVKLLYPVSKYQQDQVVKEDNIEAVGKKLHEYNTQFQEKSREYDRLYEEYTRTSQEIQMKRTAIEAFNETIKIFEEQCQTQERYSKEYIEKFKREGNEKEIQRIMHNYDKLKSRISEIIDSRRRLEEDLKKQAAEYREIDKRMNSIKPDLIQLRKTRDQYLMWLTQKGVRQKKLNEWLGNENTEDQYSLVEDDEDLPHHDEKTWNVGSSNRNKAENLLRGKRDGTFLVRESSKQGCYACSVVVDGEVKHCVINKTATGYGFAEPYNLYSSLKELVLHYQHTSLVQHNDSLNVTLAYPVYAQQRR
# [3] = molecular target: T1, His-GST-TVMV-hRIPK1(1-324) (Homo sapiens, UniProt Q13546); test: biochemical; format: binding
# T1 construct: The coding region of human RIPK1(1-324) flanked by NdeI site at 5′ end; made in house; host or cells: Spodoptera frugiperda Sf9 insect cells (baculovirus, Bac-to-Bac)
# T1 sequence (Q13546 1-324): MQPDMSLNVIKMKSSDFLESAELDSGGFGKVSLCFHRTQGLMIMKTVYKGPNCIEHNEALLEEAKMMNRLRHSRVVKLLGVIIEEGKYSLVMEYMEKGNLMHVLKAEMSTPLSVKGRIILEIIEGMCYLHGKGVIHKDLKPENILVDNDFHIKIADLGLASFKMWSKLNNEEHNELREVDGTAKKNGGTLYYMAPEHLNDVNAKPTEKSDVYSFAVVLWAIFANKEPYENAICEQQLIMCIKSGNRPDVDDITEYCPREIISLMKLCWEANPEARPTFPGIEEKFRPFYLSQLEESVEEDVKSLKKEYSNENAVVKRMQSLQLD
# [4] = Homo sapiens, 6 h, read-out: pMLKL IC50, HT29-L23 cells, necroptosis induced with TNFα, SMAC mimetic and Z-VAD, 6 h, maximal inhibition defined by Nec1s
# [5] = HTRF probe displacement, 1 h at rt
# [6] = HTRF probe displacement, 1 h at rt, read-out: RIPK1 IC50
# [7] = Table 22, compounds of the present invention, read-out: RPIK1 IC50
# [8] = read-out: pMLKL IC50, HT29-L23 cells, necroptosis induced with TNFα, SMAC mimetic and Z-VAD, 6 h, maximal inhibition defined by Nec1s
SMILES,"IC50 [1, 4] [nM]","IC50 [2, 5] [nM]","IC50 [3, 6] [nM]","IC50 ([1]; Homo sapiens, read-out: pMLKL IC50, Table 22, compounds of the present invention) [nM]","IC50 [3, 7] [nM]","IC50 [1, 8] [nM]",IC50 [2] [nM],"IC50 ([1]; Homo sapiens, 6 h, HT29-L23 cells, necroptosis induced with TNFα, SMAC mimetic and Z-VAD, 6 h, maximal inhibition defined by Nec1s, read-out: pMLKL IC50) [nM]","IC50 ([1]; Homo sapiens, Table 22, compounds of the present invention, read-out: pMLKL IC50) [nM]"
"C#Cc1ccc([C@@H](O)CCNC(=O)c2c(C)ccc(-c3ccn4nc(N)nc4c3)c2F)cc1 [Example 142, 3-{2-amino-[1,2,4]triazolo[1,5-a]pyridin-7-yl}-N-[(3S)-3-(4-ethynylphenyl)-3-hydroxypropyl]-2-fluoro-6-methylbenzamide]",2.5,> 15000,3.3,–,–,–,–,–,–
"Cc1c(F)cc(-c2ccn3nc(N)nc3c2)cc1C(=O)NCCC(C)c1ccccc1 (stereo not shown) [Example 95, 5-{2-amino-[1,2,4]triazolo[1,5-a]pyridin-7-yl}-3-fluoro-2-methyl-N-(3-phenylbutyl)benzamide]",5.9,> 15000,3,–,–,–,–,–,–
"Cc1ccc(-c2ccn3nc(N)nc3c2)c(F)c1C(=O)NCC[C@@H](O)c1ccc(Cl)cc1 [Example 152, (R)-3-(2-amino-[1,2,4]triazolo[1,5-a]pyridin-7-yl)-N-(3-(4-chlorophenyl)-3-hydroxypropyl)-2-fluoro-6-methylbenzamide]",0.5,> 15000,2.3,0.5,2.3,–,–,–,–
"Cc1ccc(-c2ccn3nc(N)nc3c2)c(F)c1C(=O)NCC(F)(F)C(O)c1ccc(F)c(F)c1 (single isomer, unassigned) [Example 198, 3-(2-amino-[1,2,4]triazolo[1,5-a]pyridin-7-yl)-N-(3-(3,4-difluorophenyl)-2,2-difluoro-3-hydroxypropyl)-2-fluoro-6-methylbenzamide]",–,> 15000,6.4,–,–,1.3,–,–,–
"Cc1ccc(-c2ccn3nc(N)nc3c2)c(F)c1C(=O)NCCC(O)c1ccc(C(F)(F)F)cc1 (single isomer, unassigned) [Example 56, 3-(2-amino-[1,2,4]triazolo[1,5-a]pyridin-7-yl)-2-fluoro-N-(3-hydroxy-3-(4-(trifluoromethyl)phenyl)propyl)-6-methylbenzamide]",–,> 15000,4.5,–,–,0.4,–,–,–
"Cc1ccc(-c2ccn3nc(N)nc3c2)c(F)c1C(=O)NCC(F)(F)[C@H](O)c1ccc(F)cc1 (single isomer, unassigned) [Example 31]",0.8,> 15000,2.4,–,–,–,–,–,–
"Cc1ccc(-c2ccn3nc(N)nc3c2)c(F)c1C(=O)NC(CF)CC(O)c1ccc(F)cc1 (single isomer, unassigned) [Example 26, 3-(2-amino-[1,2,4]triazolo[1,5-a]pyridin-7-yl)-2-fluoro-N-(1-fluoro-4-(4-fluorophenyl)-4-hydroxybutan-2-yl)-6-methylbenzamide]",–,> 15000,233,–,–,696,–,–,–
"Cc1ccc(-c2ccn3nc(N)nc3c2)c(F)c1C(=O)NC(C)CC(O)c1ccc(F)cc1 (single isomer, unassigned) [Example 39, 3-(2-amino-[1,2,4]triazolo[1,5-a]pyridin-7-yl)-2-fluoro-N-(4-(4-fluorophenyl)-4-hydroxybutan-2-yl)-6-methylbenzamide]",–,> 15000,163,–,–,397,–,–,–
"Cc1ccc(-c2ccn3nc(N)nc3c2)c(F)c1C(=O)NCCC(O)c1ccc(Cl)c(Cl)c1 (single isomer, unassigned) [Example 34, 3-(2-amino-[1,2,4]triazolo[1,5-a]pyridin-7-yl)-N-(3-(3,4-dichlorophenyl)-3-hydroxypropyl)-2-fluoro-6-methylbenzamide]",–,> 15000,0.8,–,–,1,–,–,–
"Nc1nc2cc(-c3ccc(Cl)c(C(=O)NC[C@@H](F)[C@H](O)c4ccc(F)cc4)c3F)ccn2n1 (single isomer, unassigned) [Example 297]",1.6,> 15000,3.7,–,–,–,–,–,–
"Cc1ccc(-c2ccn3nc(N)nc3c2)c(F)c1C(=O)NCCC(O)c1cccc(Cl)c1 (stereo not shown) [Example 43, 3-(2-amino-[1,2,4]triazolo[1,5-a]pyridin-7-yl)-N-(3-(3-chlorophenyl)-3-hydroxypropyl)-2-fluoro-6-methylbenzamide]",2.6,–,3.2,–,–,–,11000,–,–
"Cc1ccc(-c2ccn3nc(N)nc3c2)c(F)c1C(=O)NCC(F)(F)C(O)c1ccc(F)c(F)c1 (single isomer, unassigned) [Example 199, 3-(2-amino-[1,2,4]triazolo[1,5-a]pyridin-7-yl)-N-(3-(3,4-difluorophenyl)-2,2-difluoro-3-hydroxypropyl)-2-fluoro-6-methylbenzamide]",–,> 15000,1.4,–,–,0.6,–,–,–
"Cc1ccc(-c2ccn3nc(N)nc3c2)cc1C(=O)NCC[C@H](O)c1ccc(Cl)cc1 [Example 149, (S)-5-(2-amino-[1,2,4]triazolo[1,5-a]pyridin-7-yl)-N-(3-(4-chlorophenyl)-3-hydroxypropyl)-2-methylbenzamide]",–,> 15000,8.2,–,8.2,–,–,1.3,1.3
